Marks after values point to notes of the source that are not given here.
Experiments:
Format in all cases: in vivo
[1] = tested on: Corn plants; assay: Corn in 55-gal lysimeter containers, sub-surface chemigation, deficit water conditions, yield and root architecture; details: maximum labeled rate; for Yield (% difference from UTC): sub-surface chemigation at V3/V4, deficit water (50% plant-available water), 12 plants; for Relative number of fine roots (% difference from UTC): sub-surface chemigation at V3/V4, deficit water, measured within 2 weeks of harvest by digital imaging
Text: In this experiment, standardized growth conditions were applied across all corn treatments including: soil-water availability, soil texture and composition, soil chemical and physical properties, meteorological and environmental parameters, and plant nutrition in a greenhouse. No indication of plant disease or pest damage was observed over the course of the study and no pest management program was necessary. A homogeneous sand-organic matter soil mixture (0.18% organic matter) was used as the growth medium in 55-gal containers. These containers were used as a weighing lysimeter, where daily changes in system weight were used to calculate plant transpiration. Four corn plants were grown in each 55-gal container. Three 55-gal containers (12 plants total) made up each treatment. All irrigation and chemical treatments were applied via sub-surface irrigation. Chemical treatments consisted of: azoxystrobin (Quadris), paclobutrazol (Trimmit), trinexapac-ethyl (Moddus), and propiconazole (Tilt) at maximum labeled rates.
Corn plants were grown from seed and transplanted in the 55-gal drums approximately 14 days after planting. Uniform adequate irrigation was applied up to growth stage V3/V4 to ensure plant establishment. Chemical treatment applications were applied at growth stage V3/V4 via sub-surface chemigation. At stage V3/V4, irrigation was decreased to replicate deficit water conditions across all treatments for the remainder of the study period. Irrigation was managed daily to maintain 50% plant-available water. Visual signs of abiotic plant stress were observed approximately 30 days after chemical application. All corn plants were grown to yield and cobs were harvested when kernels were uniformly dry (15% moisture content). Root architecture, specifically relative number of fine roots, was measured at within 2 weeks of harvest using a digital imaging technique. Fine roots are related to water uptake productivity, which is directly tied to the ability of the plant to access soil-water under stress.
Effects of the chemical treatments via sub-surface irrigation on yield and root architecture were specifically documented. The effects are herein reported as the percentage increase compared to the untreated check (12 plants in three containers). […] Azoxystrobin, paclobutrazol, and trinexapac-ethyl were statistically different from the control (P values: <0.001 at the 95th percentile confidence interval).

[2] = tested on: Soybean plants; assay: Soybean plants in pouches, drench application, severe drought stress, qualitative ranking of physiological state; details: for Plant physiological state: Desiccated (number of plants in %) / Plant physiological state: Slightly withered (number of plants in %) / Plant physiological state: Strongly withered (number of plants in %) / Plant physiological state: Turgescent (number of plants in %): evaluation 14 days after application
Description: Soybean plants were grown in pouches (in filter paper bags), and 100 plants each were treated with BION at 3 rates (60, 20, 2 ppm), added to the drench water. Sowing and drench application of BION occurred simultaneously. After 8 days of optimal growth, the pouches went dry and plants were grown for several days under severe drought stress conditions until evaluation (14 days after application). A qualitative assessment was carried out, ranking the plants behaviour into four categories corresponding to four different physiological states (turgescent, slightly withered, strongly withered and desiccated) (Table 1)

[3] = tested on: Soybean plants; assay: Soybean plants in pouches, drench application, drought stress and rewatering, shoot dry weight; details: for Total Shoot Weight: 6 days drought, shoot dry weight 2 days after rewatering, 40 plants, untreated check 4.3 g
Description: Soybean plants were grown in pouches (in filter paper bags) and either BION or Thiamethoxam was applied to the water at different rates (see FIG. 2). Sowing and drench application of the compounds occurred simultaneously. After 8 days of optimal growth, the pouches went dry and plants were grown under drought stress conditions for 6 days. At the end of the drought period, plants were rewatered and shoot dry weight was determined 2 days later (Table 2). In total, 40 plants per treatment and 40 untreated check plants were assessed.

[4] = 2 ppm in drench water, severe drought
[5] = 20 ppm in drench water, severe drought
[6] = 60 ppm in drench water, severe drought

## CC(C)(C)[C@@H](O)[C@@H](Cc1ccc(Cl)cc1)n1cncn1 (racemic) [Paclobutrazol, (2RS,3RS)-1-(4-chlorophenyl)-4,4-dimethyl-2-(1H-1,2,4-triazol-1-yl)pentan-3-01]
[1]
  Yield (% difference from UTC): 16.6† %
  Relative number of fine roots (% difference from UTC): 70.0† %

## CSC(=O)c1cccc2nnsc12 [ASM, S-methyl benzo[1,2,3]thiadiazole-7-carbothioate]
[2]; [4]
  Plant physiological state: Desiccated (number of plants in %): 0.0%
  Plant physiological state: Slightly withered (number of plants in %): 70.0%
  Plant physiological state: Strongly withered (number of plants in %): 5.0%
  Plant physiological state: Turgescent (number of plants in %): 25.0%
[2]; [5]
  Plant physiological state: Desiccated (number of plants in %): 5.3%
  Plant physiological state: Slightly withered (number of plants in %): 7.9%
  Plant physiological state: Strongly withered (number of plants in %): 2.6%
  Plant physiological state: Turgescent (number of plants in %): 84.2%
[2]; [6]
  Plant physiological state: Desiccated (number of plants in %): 0.0%
  Plant physiological state: Slightly withered (number of plants in %): 15.2%
  Plant physiological state: Strongly withered (number of plants in %): 0.0%
[2]; 60 ppm in drench water, severe drought, 100 plants
  Plant physiological state: Turgescent (number of plants in %): 84.8%
[2]; dose not stated, severe drought
  Treated plants still fully turgescent at the end of the drought period: more than 80%
[2]; qualitative
  Behaviour of treated plants after severe drought compared to untreated check: behaved much better after severe drought
[3]; 5 ppm in water
  Total Shoot Weight: 4.1 g
[3]; 15 ppm in water
  Total Shoot Weight: 5.6 g
[3]; qualitative, FIG. 1
  Health of treated plants after drought compared to untreated check: behaved extremely healthy

## CO/C=C(/C(=O)OC)c1ccccc1Oc1cc(Oc2ccccc2C#N)ncn1 [Azoxystrobin]
[1]
  Yield (% difference from UTC): 12.5† %
  Relative number of fine roots (% difference from UTC): 37.3† %

## CCCC1COC(Cn2cncn2)(c2ccc(Cl)cc2Cl)O1 (stereo not drawn) [Propiconazole]
[1]
  Yield (% difference from UTC): 3.3%
  Relative number of fine roots (% difference from UTC): 39.4† %

## CN1COCN(Cc2cnc(Cl)s2)/C1=N\[N+](=O)[O-] [TMX]
[3]; 3 ppm in water
  Total Shoot Weight: 4.6 g
[3]; 12 ppm in water
  Total Shoot Weight: 5.8 g

## CCOC(=O)C1CC(=O)C(=C(O)C2CC2)C(=O)C1 (stereo not drawn) [Trinexapac-ethyl]
[1]
  Yield (% difference from UTC): 15.6† %
  Relative number of fine roots (% difference from UTC): 34.3† %
